Results: patent publication US11739098B2 (BRISTOL-MYERS SQUIBB COMPANY, priority 2017, dated 2023)

What was measured:
Type in all cases: cell-based
human TLR8 = molecular target: T1, human TLR8 (Homo sapiens, UniProt Q9NR97); assay: TLR8 inhibition reporter assay (HEK-Blue cells, SEAP reporter, R848 stimulation); conditions: HEK-Blue cells overexpressing human TLR8, SEAP reporter, R848 15.9 μM
T1 construct: host or cells: HEK-Blue cells (HEK293-derived reporter line)
T1 sequence (Q9NR97 27-1041): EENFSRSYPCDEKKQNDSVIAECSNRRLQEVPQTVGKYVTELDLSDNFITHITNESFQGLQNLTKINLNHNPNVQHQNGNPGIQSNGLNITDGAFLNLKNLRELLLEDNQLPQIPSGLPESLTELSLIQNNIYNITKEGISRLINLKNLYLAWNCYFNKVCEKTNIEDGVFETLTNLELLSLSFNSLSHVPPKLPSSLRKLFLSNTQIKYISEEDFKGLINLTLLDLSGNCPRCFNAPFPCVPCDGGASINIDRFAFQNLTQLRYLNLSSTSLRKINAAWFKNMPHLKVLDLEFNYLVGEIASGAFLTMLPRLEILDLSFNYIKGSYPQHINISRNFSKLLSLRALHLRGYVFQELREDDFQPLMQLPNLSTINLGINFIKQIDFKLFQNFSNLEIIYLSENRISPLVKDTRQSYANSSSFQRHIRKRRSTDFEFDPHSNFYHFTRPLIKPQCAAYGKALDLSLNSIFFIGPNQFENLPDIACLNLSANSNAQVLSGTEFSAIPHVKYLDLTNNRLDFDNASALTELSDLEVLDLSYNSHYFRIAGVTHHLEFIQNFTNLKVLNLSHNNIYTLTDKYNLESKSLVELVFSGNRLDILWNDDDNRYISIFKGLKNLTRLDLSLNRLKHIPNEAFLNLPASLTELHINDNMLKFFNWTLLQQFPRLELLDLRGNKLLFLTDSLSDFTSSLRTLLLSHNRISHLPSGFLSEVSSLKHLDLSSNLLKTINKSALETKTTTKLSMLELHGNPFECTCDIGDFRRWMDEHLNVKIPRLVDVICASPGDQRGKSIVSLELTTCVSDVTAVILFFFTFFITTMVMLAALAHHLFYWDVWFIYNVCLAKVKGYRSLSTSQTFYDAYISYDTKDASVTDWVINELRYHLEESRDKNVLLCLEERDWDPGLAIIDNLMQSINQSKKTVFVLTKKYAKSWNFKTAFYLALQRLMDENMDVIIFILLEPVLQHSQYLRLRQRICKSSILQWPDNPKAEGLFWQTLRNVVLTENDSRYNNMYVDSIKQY
Protocol: (§1) TLR7/8/9 Inhibition Reporter Assays
(§2) HEK-Blue™-cells (Invivogen) overexpressing human TLR7, TLR8 or TLR9 receptors were used for screening inhibitors of these receptors using an inducible SEAP (secreted embryonic alkaline phosphatase) reporter gene under the control of the IFN-β minimal promoter fused to five NF-κB and AP-1-binding sites. Briefly, cells are seeded into Greiner 384 well plates (15000 cells per well for TLR7, 20,000 for TLR8 and 25,000 for TLR9) and then treated with test compounds in DMSO to yield a final dose response concentration range of 0.05 nM-50 μM. After a 30 minute compound pre-treatment at room temperature, the cells are then stimulated with a TLR7 ligand (gardiquimod at a final concentration of 7.5 μM), TLR8 ligand (R848 at a final concentration of 15.9 μM) or TLR9 ligand (ODN2006 at a final concentration of 5 nM) to activate NF-κB and AP-1 which induce the production of SLAP After a 22 hour incubation at […], SLAP levels are determined with the addition of HLK-Blue™ Detection reagent (Invivogen), a cell culture medium that allows for detection of SLAP, according to manufacturer's specifications. The percent inhibition is determined as the […] in the HEK-Blue signal present in wells treated with agonist plus DMSO alone compared to wells treated with a known inhibitor.

human TLR9 = molecular target: T2, human TLR9 (Homo sapiens, UniProt Q9NR96); assay: TLR9 inhibition reporter assay (HEK-Blue cells, SEAP reporter, ODN2006 stimulation); conditions: HEK-Blue cells overexpressing human TLR9, SEAP reporter, ODN2006 5 nM
T2 construct: host or cells: HEK-Blue cells (HEK293-derived reporter line)
T2 sequence (Q9NR96 26-1032): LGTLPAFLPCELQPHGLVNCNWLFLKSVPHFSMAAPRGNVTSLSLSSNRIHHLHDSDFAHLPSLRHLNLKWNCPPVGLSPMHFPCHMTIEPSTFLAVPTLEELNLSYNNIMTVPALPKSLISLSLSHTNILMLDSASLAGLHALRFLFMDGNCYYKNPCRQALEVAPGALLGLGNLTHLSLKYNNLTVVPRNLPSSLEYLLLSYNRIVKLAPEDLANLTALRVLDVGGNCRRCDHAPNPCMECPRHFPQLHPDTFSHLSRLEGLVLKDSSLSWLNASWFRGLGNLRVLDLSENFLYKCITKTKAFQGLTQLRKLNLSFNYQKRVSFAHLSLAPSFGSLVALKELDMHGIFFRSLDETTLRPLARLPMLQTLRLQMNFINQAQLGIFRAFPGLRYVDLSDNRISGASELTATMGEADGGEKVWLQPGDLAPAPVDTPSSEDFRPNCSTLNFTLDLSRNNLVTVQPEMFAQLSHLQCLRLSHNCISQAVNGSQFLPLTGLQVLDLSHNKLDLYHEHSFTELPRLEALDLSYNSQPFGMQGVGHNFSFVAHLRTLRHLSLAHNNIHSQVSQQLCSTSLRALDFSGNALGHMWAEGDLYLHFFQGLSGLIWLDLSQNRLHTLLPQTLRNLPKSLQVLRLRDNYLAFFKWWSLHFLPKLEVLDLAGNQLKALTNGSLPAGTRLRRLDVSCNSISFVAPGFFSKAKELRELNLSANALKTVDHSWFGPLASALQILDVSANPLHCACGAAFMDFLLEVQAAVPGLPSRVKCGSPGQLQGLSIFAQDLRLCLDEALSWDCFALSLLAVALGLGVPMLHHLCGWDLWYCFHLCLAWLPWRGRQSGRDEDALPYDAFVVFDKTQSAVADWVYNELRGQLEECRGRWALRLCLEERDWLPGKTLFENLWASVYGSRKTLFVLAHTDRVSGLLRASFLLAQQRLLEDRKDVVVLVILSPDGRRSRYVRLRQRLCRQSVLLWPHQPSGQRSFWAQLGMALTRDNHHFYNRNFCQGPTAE
Protocol: as §1, §2

human TLR7 = molecular target: T3, human TLR7 (Homo sapiens, UniProt Q9NYK1); assay: TLR7 inhibition reporter assay (HEK-Blue cells, SEAP reporter, gardiquimod stimulation); conditions: HEK-Blue cells overexpressing human TLR7, SEAP reporter, gardiquimod 7.5 μM
T3 construct: host or cells: HEK-Blue cells (HEK293-derived reporter line)
T3 sequence (Q9NYK1 27-1049): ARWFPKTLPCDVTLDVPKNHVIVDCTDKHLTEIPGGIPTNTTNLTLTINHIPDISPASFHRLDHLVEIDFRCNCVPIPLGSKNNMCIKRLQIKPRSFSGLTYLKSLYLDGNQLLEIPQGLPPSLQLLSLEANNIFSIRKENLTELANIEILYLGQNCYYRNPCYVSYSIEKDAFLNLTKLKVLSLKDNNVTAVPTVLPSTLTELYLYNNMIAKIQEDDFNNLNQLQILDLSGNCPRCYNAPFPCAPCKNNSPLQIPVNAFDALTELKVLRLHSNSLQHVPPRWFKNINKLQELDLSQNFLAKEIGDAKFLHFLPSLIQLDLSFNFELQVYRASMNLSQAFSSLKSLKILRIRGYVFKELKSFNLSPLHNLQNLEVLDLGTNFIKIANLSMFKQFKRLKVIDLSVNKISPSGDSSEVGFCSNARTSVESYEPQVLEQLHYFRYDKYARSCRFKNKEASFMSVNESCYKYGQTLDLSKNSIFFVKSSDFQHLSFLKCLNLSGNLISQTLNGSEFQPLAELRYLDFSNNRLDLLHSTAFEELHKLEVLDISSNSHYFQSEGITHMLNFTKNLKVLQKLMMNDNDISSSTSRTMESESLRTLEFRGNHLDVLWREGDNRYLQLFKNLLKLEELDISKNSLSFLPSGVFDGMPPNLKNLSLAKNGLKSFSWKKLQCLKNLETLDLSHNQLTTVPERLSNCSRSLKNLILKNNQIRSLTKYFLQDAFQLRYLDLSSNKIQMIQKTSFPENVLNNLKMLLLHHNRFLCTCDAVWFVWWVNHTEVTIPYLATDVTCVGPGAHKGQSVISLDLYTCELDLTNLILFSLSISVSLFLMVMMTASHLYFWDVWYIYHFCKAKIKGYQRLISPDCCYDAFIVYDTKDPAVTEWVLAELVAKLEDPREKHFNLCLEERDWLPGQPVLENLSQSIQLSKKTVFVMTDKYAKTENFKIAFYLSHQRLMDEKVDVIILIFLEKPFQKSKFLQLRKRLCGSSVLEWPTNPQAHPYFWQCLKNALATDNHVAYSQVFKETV
Protocol: as §1, §2

| IC50 (human TLR8) [nM] | IC50 (human TLR9) [nM] | IC50 (human TLR7) [nM] | Compound |
| --- | --- | --- | --- |
| < 100 | 1000 to 50000 |  | COc1cc(-c2[nH]c3ccc(C4CCN(CCS(C)(=O)=O)CC4)cc3c2C(C)C)cn2ccnc12 [Example 801, 6-(3-isopropyl-5-(1-(2-(methylsulfonyl)ethyl)piperidin-4-yl)-1H-indol-2-yl)-8-methoxyimidazo[1,2-a]pyridine] |
| 100 to 1000 |  | 100 to 1000 | CC(C)c1c(-c2ccnc3[nH]ncc23)[nH]c2ccc(C3CCN(Cc4ccncc4Cl)CC3)cc12 [Example 923, 4-(5-(1-((3-chloropyridin-4-yl)methyl)piperidin-4-yl)-3-isopropyl-1H-indol-2-yl)-1H-pyrazolo[3,4-b]pyridine] |
| < 100 |  | < 100 | Cc1cc(-c2[nH]c3ccc(C4CCN(C(=O)C[C@H](C)O)CC4)cc3c2C(C)C)cn2nnnc12 [Example 593, (S)-3-hydroxy-1-(4-(3-isopropyl-2-(8-methyltetrazolo[1,5-a]pyridin-6-yl)-1H-indol-5-yl)piperidin-1-yl)butan-1-one] |
| > 3130 | 100 to 1000 |  | Cc1c(-c2ncnc3c2cnn3C)[nH]c2ccc(C3CCN(C4CCN(C(C)C)CC4)CC3)cc12 [Example 818, 4-(5-(1′-isopropyl-[1,4′-bipiperidin]-4-yl)-3-methyl-1H-indol-2-yl)-1-methyl-1H-pyrazolo[3,4-d]pyrimidine] |
|  | 100 to 1000 | < 100 | Cc1cn2cc(-c3[nH]c4ccc(C5CCNCC5)cc4c3CC(F)F)ccc2n1 [Example 129, 6-(3-(2,2-difluoroethyl)-5-(piperidin-4-yl)-1H-indol-2-yl)-2-methylimidazo[1,2-a]pyridine] |
|  | 100 to 1000 | < 100 | CNCC(=O)N1CCC(c2ccc3[nH]c(-c4ccc5nc(C)cn5c4)c(CC(F)F)c3c2)CC1 [Example 550, 1-(4-(3-(2,2-difluoroethyl)-2-(2-methylimidazo[1,2-a]pyridin-6-yl)-1H-indol-5-yl)piperidin-1-yl)-2-(methylamino)ethan-1-one] |
| < 100 | 100 to 1000 |  | COC(=O)C1CC(N2CCC(c3ccc4[nH]c(-c5ccnc6[nH]ncc56)c(C(C)C)c4c3)CC2)CCN1 (centres unmarked) [Example 825, methyl 4-(3-isopropyl-2-(1H-pyrazolo[3,4-b]pyridin-4-yl)-1H-indol-5-yl)-[1,4′-bipiperidine]-2′-carboxylate] |
| 1000 to 50000 |  | 1000 to 50000 | Cc1c(-c2ccnc3[nH]nnc23)[nH]c2ccc(C3CCNCC3)cc12 [Example 233, 7-(3-methyl-5-(piperidin-4-yl)-1H-indol-2-yl)-3H-[1,2,3] triazolo[4,5-b]pyridine] |
|  | 100 to 1000 | < 100 | CNC(=O)CN1CCC(c2ccc3[nH]c(-c4ccc5nc(C)cn5c4)c(CC(F)F)c3c2)CC1 [Example 417, 2-(4-(3-(2,2-difluoroethyl)-2-(2-methylimidazo[1,2-a]pyridin-6-yl)-1H-indol-5-yl)piperidin-1-yl)-N-methylacetamide] |
| 100 to 1000 |  | < 100 | Cc1c(-c2[nH]c3ccc(C4CCNCC4)cc3c2C(C)C)ccc2nccn12 [Example 111, 6-(3-isopropyl-5-(piperidin-4-yl)-1H-indol-2-yl)-5-methylimidazo[1,2-a]pyridine] |
| < 100 | 1000 to 50000 |  | COc1cc(-c2[nH]c3ccc(C4CCNCC4)cc3c2C(C)C)cn2cc(C(=O)N(C)C)nc12 [Example 263, 6-(3-isopropyl-5-(piperidin-4-yl)-1H-indol-2-yl)-8-methoxy-N,N-dimethylimidazo[1,2-a]pyridine-2-carboxamide] |
| > 50000 | 1000 to 50000 |  | CCc1c(-c2cccc3c2cnn3C)[nH]c2ccc(C3CCN(C(=O)CN4CCCN(C)CC4)CC3)cc12 [Example 521, 1-(4-(3-ethyl-2-(1-methyl-1H-indazol-4-yl)-1H-indol-5-yl)piperidin-1-yl)-2-(4-methyl-1,4-diazepan-1-yl)ethan-1-one] |
| > 3130 | 100 to 1000 |  | CNCCN1CCC(c2ccc3[nH]c(-c4cnc5ccccc5c4)c(C)c3c2)CC1 [Example 664, N-methyl-2-(4-(3-methyl-2-(quinolin-3-yl)-1H-indol-5-yl)piperidin-1-yl)ethan-1-amine] |
